Like-named read-outs stand apart in the source and are kept apart here.
Assays:
Assay type in all cases: in vivo
[1] = Skin surface temperature / adverse event monitoring of human participants during vancomycin infusion; details: for Physiologic response (skin surface temperature): temperature every 5 minutes
From the text: Reference is made to FIG. 21A and FIG. 21B each showing a computer-rendered representation of the device (10) used in these studies, indicating one of the microneedles (30), the power supply, being a battery (105), a printed circuit board (110) having various electronic components such as the communications module and microprocessor mounted thereon, and a thermistor (115) functioning to contact the skin surface of the participant and provide an estimation of the temperature of the underlying ISF.
Participants were monitored throughout the study duration for any adverse events. Given the duration of the study visit, participants were required to stay overnight. In the absence of any adverse events, participants were discharged the following morning after being observed for at least 15 minutes post removal of the device.
The EAB sensor used in these studies penetrated 1-2 mm into the dermal interstitial compartment with micron diameter electrodes coated with a specific DNA sequence for vancomycin detection. Additionally, the EAB sensor continuously monitored (every 5 minutes) surface temperature where the normal temperature range for a human is characterised between 31-35.5° C.

[2] = Vancomycin concentration in blood/serum of human participants (blood draws); details: blood, iv, 1 gram, single 1 gram IV infusion over 1 hour 40 minutes
Experimental: These human studies were performed at Monash Health, Monash Medical Centre, Clayton, Victoria 3168, Australia, under protocol reference number 2021/ETH80521 and protocol trial identified and registry 80521. Institutional Ethics Committee approval was obtained before commencement of the study.
(§1) 30 minutes (+15 minutes) post-application of the device, the participant received a single dose of vancomycin as an intravenous infusion (1 gram over 1 hour 40 minutes). The time of administration and completion of infusion was recorded.
Blood samples for the measurement of vancomycin concentrations were collected prior to the administration of vancomycin infusion, 30 minutes (±5 minutes) and 1 hour (±10 minutes) during the infusion, at the end of the infusion (±15 minutes) and then at 40 minutes (±15 minutes), 1.5 hours (±15 minutes), 2 hours (±15 minutes), 3 hours (±15 minutes), 4 hours (±15 minutes), 6 hours (±15 minutes), 8 hours (±15 minutes) and 10 hours (±15 minutes) after the infusion has been completed.
These human studies characterised perfusion dynamics. The study was performed in relation to a 1000 mg vancomycin dose administered via venous infusion.
ISF dynamics are captured in real-time high resolution (every 5 minutes) detection of vancomycin concentration. […] In comparison to blood (Cmax, ~30 mg/L) very little vancomycin was monitored in the ISF compartment (Cmax~6 mg/L) which is interpreted as a low level of perfusion

[3] = Vancomycin concentration in dermal interstitial fluid (ISF) of human participants by wearable EAB sensor; details: 1 gram; for Kp: dermal interstitial fluid (ISF) relative to blood, intravenous, read-out: Proportion of vancomycin monitored in ISF compartment in comparison to blood; for Cmax: dermal interstitial fluid (ISF), iv, read-out: Cmax in ISF compartment
From the text: These human studies followed vancomycin levels using an EAB sensor (which may also be referred to as the “device”). The device was a self-contained wearable EAB sensor, constructed, having an on-board power supply, electrodes, and electronics, including a microprocessor and BlueTooth™ communications module.
The EAB sensor comprised four electrodes: two aptamer-coated working electrodes, a counter electrode, and a reference electrode. All electrodes were in the form of a microneedle configured to pierce the skin and contact the participant's ISF when fully inserted into the dermal tissues.
Each working electrode was coated with a vancomycin-sensitive single-stranded DNA-aptamer having a length of 28 nucleobases, obtained from Dr. Milan STOJANOVIC, New York campus research laboratory of The Trustees of Columbia University in the City of New York of 80 Claremont Avenue, 4th Floor, New York, NY 10027, United States.
A vancomycin-sensitive EAB sensor was placed onto the participant's upper arm (see FIG. 20), opposite the arm where vancomycin was being infused. The time of device application was recorded. The device was applied 30 minutes (+15 minutes) prior to administering the vancomycin infusion and the device was removed up to 10 hours post-cessation of the infusion.
as §1
Once applied to the participant, the DNA-based sensor electrodes were interrogated, and output treated as follows.
Square Wave Voltammetry (SWV) was used to interrogate the DNA-based sensor electrodes. Multiple steps were performed to convert the raw voltammograms obtained from the DNA-based sensor electrodes into a vancomycin concentration. The steps detailed below convert the raw SWV voltammograms into a signal that is indicative of the analyte concentration. • 1. Smooth the raw SWV voltammogram current versus voltage data to aid identification of the current peak and its magnitude. • 2. Apply a peak finding algorithm to the smoothed voltammogram to identify the position of the peak and to subtract a baseline current to determine a peak current magnitude. • 3. Use the determined peak currents magnitudes obtained at two different SWV interrogation frequencies (in this case 50 Hz and 300 Hz), when no vancomycin is present and when it is present to calculate an analyte concentration responsive signal (S). • 4. Smooth the S values over time, prior to applying a calibration function.
Steps 1 to 3 were used to analyse the calibration data as detailed below at (a) and (b), and steps 1 to 4 above in relation to the clinical data. • (a) Calibration data was produced from in vitro testing, where vancomycin is spiked into bovine plasma and tested using electrodes from the same production batch as those used in the clinical experiments (but not the electrode actually used in the clinical experiments). The purpose of this testing was to produce S versus known vancomycin concentration data that can be used to produce a calibration function to convert the S values into the corresponding measured vancomycin concentration values ([V]). • (b) Clinical experiment data, where the calibration function determined in (a) is applied to the S values produced by the in vivo electrodes in the clinical experiment, to convert them to measured vancomycin concentrations. […]

[4] = participant 014 (hyper-perfusion phenotype)

## CN[C@H](CC(C)C)C(=O)N[C@H]1C(=O)N[C@@H](CC(N)=O)C(=O)N[C@H]2C(=O)N[C@H]3C(=O)N[C@H](C(=O)N[C@H](C(=O)O)c4cc(O)cc(O)c4-c4cc3ccc4O)[C@H](O)c3ccc(c(Cl)c3)Oc3cc2cc(c3O[C@@H]2O[C@H](CO)[C@@H](O)[C@H](O)[C@H]2O[C@H]2C[C@](C)(N)[C@H](O)[C@H](C)O2)Oc2ccc(cc2Cl)[C@H]1O [vancomycin]
[1]; participant 012, no elevations above 36° C.
  Physiologic response (skin surface temperature): no physiologic response
[1]; participant 014, temperature elevations above 36° C. recorded, antihistamine treatment required
  Adverse reaction to vancomycin: sensitivity response to vancomycin which resulted in hives and itching
[1]; participant 015
  Physiologic response (skin surface temperature): no elevations depicting a physiological response
[2]; participant 012 (hypo-perfusion phenotype), 12 blood draws over 12 hours
  Cmax: ~30000 ng/mL
[2]; [4]
  Cmax: ~35000 ng/mL
[2]; participant 015 (moderate-perfusion phenotype), 12 blood draws over 12 hours
  Cmax: ~30000 ng/mL
[3]; [4]
  Kp: ~0.86
[3]; participant 015 (moderate-perfusion phenotype)
  Kp: ~0.3
[3]; participant 012 (hypo-perfusion phenotype), EAB sensor 812, single 1 gram IV infusion, read every 5 minutes
  Cmax: ~6000 ng/mL
[3]; participant 014 (hyper-perfusion phenotype), EAB sensor 810, single 1 gram IV infusion
  Cmax: ~10000 ng/mL
[3]; participant 015 (moderate-perfusion phenotype), EAB sensor 818, single 1 gram IV infusion, read every 5 minutes
  Cmax: ~10000 ng/mL

Reference: US20260212981A1, “Methods of drug dosing based on early pharmacokinetics” (NUTROMICS […] LTD, priority 2022, published 2026)
